Assays:
wild mustard = experiment: Test D postemergence; assay type: in vivo, Sinapis arvensis; settings: Brassica, post-emergence, scale 0 to 100 (0 no effect, 100 complete control), read-out: Plant response rating, Mustard, Wild
Procedure, shortened: (§1)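 In a controlled growth environment, treated and control plants were held 7 to 21 days, then compared visually. Damage was scored 0–100, where 100 means complete control. Sprays contained surfactant in a non-phytotoxic solvent; post-applied plants were at the 1- to 4-leaf stage.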

kochia [1] = experiment: Test E postemergence; assay type: in vivo, Kochia scoparia
Source text: (§2) Seeds of plant species selected from corn (Zea mays), soybean (Glycine max), velvetleaf (Abutilon theophrasti), lambsquarters (Chenopodium album), wild poinsettia (Euphorbia heterophylla), palmer pigweed (Amaranthus palmeri), waterhemp (common waterhemp, Amaranthus rudis), surinam grass (Brachiaria decumbens), large (Lg) crabgrass (Digitaria sanguinalis), Brazilian crabgrass (Digitaria horizontalis), fall panicum (Panicum dichotomiflorum), giant foxtail (Setaria faberii), green foxtail (Setaria viridis), goosegrass (Eleusine indica), johnsongrass (Sorghum halepense), ragweed (common ragweed, Ambrosia elatior), barnyardgrass (Echinochloa crus-galli), sandbur (southern sandbur, Cenchrus echinatus), arrowleaf sida (Sida rhombifolia), Italian ryegrass (Lolium multiflorum), dayflower (Virginia (VA) dayflower, Commelina virginica), field bindweed (Convolvulus arvensis), morningglory (Ipomoea coccinea), nightshade (eastern black nightshade, Solanum ptycanthum), kochia (Kochia scoparia), yellow nutsedge (Cyperus esculentus), cocklebur (common cocklebur, Xanthium strumarium), smartweed (ladysthumb smartweed, and hairy beggarticks (Bidens pilosa), were planted into a silt loam soil and treated preemergence with test chemicals formulated in a non-phytotoxic solvent mixture which included a surfactant.
(§3) At the same time, plants from these crop and weed species and also horseweed (Canada horseweed, Conyza canadensis), waterhemp_RES1, (ALS & Triazine resistant common waterhemp, Amaranthus rudis), and waterhemp_RES2, (ALS & HPPD resistant common waterhemp, Amaranthus rudis) were planted in pots containing Redi-Earth® planting medium (Scotts Company, 14111 Scottslawn Road, Marysville, Ohio 43041) comprising spaghnum peat moss, vermiculite, wetting agent and starter nutrients were treated with postemergence applications of test chemicals formulated in the same manner. Plants ranged in height from 2 to 18 cm for postemergence treatments (1- to 4-leaf stage). Treated plants and controls were maintained in a greenhouse for 14 to 21 days, after which time all species were compared to controls and visually evaluated. Plant response ratings, summarized in Table E, are based on a scale of 0 to 100 where 0 is no effect and 100 is complete control. A dash (-) response means no test result.

cocklebur = experiment: Test E preemergence; assay type: in vivo, Xanthium strumarium; settings: for Cocklebur plant response rating: scale 0 to 100 (0 no effect, 100 complete control); for Plant response rating, Cocklebur: scale 0 to 100, 0 no effect, 100 complete control
Source text: as §2, §3

wild oat = experiment: Test D postemergence; assay type: in vivo, Avena fatua; settings: Avena fatua, post-emergence, scale 0 to 100 (0 no effect, 100 complete control), read-out: Plant response rating, Oat, Wild
Procedure, shortened: as §1

bromegrass, downy = experiment: Test D postemergence; assay type: in vivo, Bromus tectorum; settings: Bromus tectorum, post-emergence, Postemergence, scale 0 to 100 (0 no effect, 100 complete control), read-out: Plant response rating, Bromegrass, Downy
Procedure, shortened: as §1

wild radish = experiment: Test D preemergence; assay type: in vivo, Raphanus raphanistrum; settings: Raphanus raphanistrum, pre-emergence
Source text: Seeds of plant species selected from bluegrass (annual bluegrass, Poa annua), blackgrass (Alopecurus myosuroides), canarygrass (littleseed canarygrass, Phalaris minor), chickweed (common chickweed, Stellaria media), galium (catchweed bedstraw, Galium aparine), bromegrass, downy (downy bromegrass, Bromus tectorum), field poppy (Papaver rhoeas), field violet (Viola arvensis), green foxtail (Setaria viridis), deadnettle (henbit deadnettle, Lamium amplexicaule), Italian ryegrass (Lolium multiflorum), kochia (Kochia scoparia), lambsquarters (Chenopodium album), oilseed rape (Brassica napus), pigweed (Amaranthus retroflexus), chamomile (scentless chamomile, Matricaria inodora), Russian thistle (Salsola kali), speedwell (bird's-eye speedwell, Veronica persica), spring barley (Hordeum vulgare), spring wheat (Triticum aestivum), wild buckwheat (Polygonum convolvulus), wild mustard (Sinapis arvensis), wild oat (Avena fatua), wild radish (Raphanus raphanistrum), windgrass (Apera spica-venti), winter barley (Hordeum vulgare), and winter wheat (Triticum aestivum) were planted into a silt loam soil and treated preemergence with test chemicals formulated in a non-phytotoxic solvent mixture which included a surfactant.
At the same time, these species were planted in pots containing Redi-Earth® planting medium (Scotts Company, 14111 Scottslawn Road, Marysville, Ohio 43041) comprising spaghnum peat moss, vermiculite, wetting agent and starter nutrients and treated with postemergence applications of the test chemicals formulated in the same manner. Plants ranged in height from 2 to 18 cm (1- to 4-leaf stage). Treated plants and controls were maintained in a controlled growth environment for 7 to 21 days after which time all species were compared to controls and visually evaluated. Plant response ratings, summarized in Table D, are based on a scale of 0 to 100 where 0 is no effect and 100 is complete control. A dash (-) response means no test result.

kochia [2] = experiment: Test D postemergence; assay type: in vivo, Kochia scoparia; settings: Bassia scoparia, post-emergence, scale 0 to 100 (0 no effect, 100 complete control), read-out: Plant response rating, Kochia
Procedure, shortened: as §1

spring wheat = experiment: Test D postemergence; assay type: in vivo, Triticum aestivum; settings: Triticum aestivum, post-emergence, scale 0 to 100 (0 no effect, 100 complete control), read-out: Plant response rating, Wheat, Spring
Procedure, shortened: as §1

winter wheat = experiment: Test D postemergence; assay type: in vivo, Triticum aestivum; settings: Triticum aestivum, post-emergence, scale 0 to 100 (0 no effect, 100 complete control), read-out: Plant response rating, Wheat, Winter
Procedure, shortened: as §1

Italian ryegrass = experiment: Test D postemergence; assay type: in vivo, Lolium multiflorum; settings: Lolium multiflorum, post-emergence, scale 0 to 100 (0 no effect, 100 complete control), read-out: Plant response rating, Ryegrass, Italian
Procedure, shortened: as §1

[3] = Postemergence, 31 g ai/ha, scale 0 to 100
[4] = Postemergence, 62 g ai/ha, scale 0 to 100
[5] = Postemergence, 125 g ai/ha, scale 0 to 100
[6] = postemergence, 16 g ai/ha, scale 0 to 100, 0 no effect, 100 complete control

Work on `N#Cc1cccc(Oc2ncc(Cl)cn2)c1-n1cc(Br)cn1` [Compound 52, 2-(4-bromo-1H-pyrazol-1-yl)-3-[(5-chloro-2-pyrimidinyl)oxy]benzonitrile] yielded a pest or weed control at 31 g/ha (wild mustard; 31 g ai/ha) of 70%, a pest or weed control at 62 g/ha (wild mustard; 62 g ai/ha) of 80% and a pest or weed control at 125 g/ha (wild mustard; 125 g ai/ha) of 95%. For the same compound, the pest or weed control at 250 g/ha (wild mustard; 250 g ai/ha) was 100%, the “Plant response rating, Kochia” value (kochia [1]; [3]) was 50 and the “Plant response rating, Kochia” value (kochia [1]; [4]) was 55. The “Plant response rating, Kochia” value (kochia [1]; [5]) was 80, the “Plant response rating, Kochia” value (kochia [1]; [6]) was 40 and the “Cocklebur plant response rating” value (cocklebur; 16 g ai/ha) was 0. For the same compound, the “Cocklebur plant response rating” value (cocklebur; 31 g ai/ha) was 0, the “Cocklebur plant response rating” value (cocklebur; 62 g ai/ha) was 0 and the “Plant response rating, Cocklebur” value (cocklebur; 250 g ai/ha) was 25. The pest or weed control at 31 g/ha (wild oat; 31 g ai/ha) was 20%, the pest or weed control at 62 g/ha (wild oat; 62 g ai/ha) was 35% and the pest or weed control at 125 g/ha (wild oat; 125 g ai/ha) was 30%. It also gave a pest or weed control at 250 g/ha (wild oat; 250 g ai/ha) of 35%, a pest or weed control at 31 g/ha (bromegrass, downy; 31 g ai/ha) of 15% and a pest or weed control at 62 g/ha (bromegrass, downy; 62 g ai/ha) of 20%. It also gave a pest or weed control at 125 g/ha (bromegrass, downy; 125 g ai/ha) of 20%, a pest or weed control at 250 g/ha (bromegrass, downy; 250 g ai/ha) of 25% and a pest or weed control at 31 g/ha (wild radish; 31 g ai/ha, scale 0 (no effect) to 100 (complete control), read-out: Plant response rating, Radish, Wild) of 30%. The pest or weed control at 62 g/ha (wild radish; 62 g ai/ha, scale 0-100, read-out: Plant response rating, Radish, Wild) was 80%, the pest or weed control at 125 g/ha (wild radish; 125 g ai/ha, scale 0-100, read-out: Plant response rating, Radish, Wild) was 95% and the pest or weed control at 250 g/ha (wild radish; 250 g ai/ha, scale 0-100, read-out: Plant response rating, Radish, Wild) was 100%. It also gave a pest or weed control at 31 g/ha (kochia [2]; 31 g ai/ha) of 80%, a pest or weed control at 62 g/ha (kochia [2]; 62 g ai/ha) of 90% and a pest or weed control at 125 g/ha (kochia [2]; 125 g ai/ha) of 90%. It also gave a pest or weed control at 250 g/ha (kochia [2]; 250 g ai/ha) of 90%, a plant injury at 31 g/ha (spring wheat; 31 g ai/ha) of 5% and a plant injury at 62 g/ha (spring wheat; 62 g ai/ha) of 10%. The plant injury at 125 g/ha (spring wheat; 125 g ai/ha) was 10%, the plant injury at 250 g/ha (spring wheat; 250 g ai/ha) was 15% and the plant injury at 31 g/ha (winter wheat; 31 g ai/ha) was 10%. It also gave a plant injury at 62 g/ha (winter wheat; 62 g ai/ha) of 15%, a plant injury at 125 g/ha (winter wheat; 125 g ai/ha) of 20% and a plant injury at 250 g/ha (winter wheat; 250 g ai/ha) of 25%. For the same compound, the pest or weed control at 31 g/ha (Italian ryegrass; 31 g ai/ha) was 5%, the pest or weed control at 62 g/ha (Italian ryegrass; 62 g ai/ha) was 5% and the pest or weed control at 125 g/ha (Italian ryegrass; 125 g ai/ha) was 20%. It also gave a pest or weed control at 250 g/ha (Italian ryegrass; 250 g ai/ha) of 35%.
For `N#Cc1cccc(Oc2ncc(Cl)cn2)c1-n1cc(Cl)cn1` [Compound 72], the “Cocklebur plant response rating” value (cocklebur; 16 g ai/ha) was 0, the “Plant response rating, Cocklebur” value (cocklebur; 125 g ai/ha) was 0 and the “Plant response rating, Cocklebur” value (cocklebur; 250 g ai/ha) was 15.
`N#Cc1cnn(-c2c(C#N)cccc2Oc2ncc(Cl)cn2)c1` [Compound 200] was tested, and the “Cocklebur plant response rating” value (cocklebur; 16 g ai/ha) was 0, the “Cocklebur plant response rating” value (cocklebur; 31 g ai/ha) was 0 and the “Plant response rating, Cocklebur” value (cocklebur; 125 g ai/ha) was 75. The “Plant response rating, Cocklebur” value (cocklebur; 250 g ai/ha) was 95.
With `Clc1cnc(Oc2cccc(Cl)c2-n2cc(I)cn2)nc1` [Compound 181] the “Plant response rating, Kochia” value (kochia [1]; [3]) was 60, the “Plant response rating, Kochia” value (kochia [1]; [4]) was 50 and the “Plant response rating, Kochia” value (kochia [1]; [5]) was 90. For the same compound, the “Plant response rating, Kochia” value (kochia [1]; [6]) was 35.
With `N#Cc1cccc(Oc2ncc(F)cn2)c1-n1cc(C(F)(F)F)cn1` [Compound 79, 3-[(5-fluoro-2-pyrimidinyl)oxy]-2-[4-(trifluoromethyl)-1H-pyrazol-1-yl]benzonitrile] the “Plant response rating, Kochia” value (kochia [1]; [3]) was 70, the “Plant response rating, Kochia” value (kochia [1]; [4]) was 80 and the “Plant response rating, Kochia” value (kochia [1]; [5]) was 75. The “Plant response rating, Kochia” value (kochia [1]; [6]) was 50.

From patent publication US9695155B2, “Herbicidal substituted pyrimidinyloxy benzene compounds” (E. I. DU PONT DE NEMOURS AND COMPANY, priority 2013, dated 2017)
